Source: PubChem BioAssay (NCI)
Values joined by “and” are separate entries in the source; they are usually repeats but may differ in a detail not shown here. Identical values can stand only once.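 A five-concentration, 48-hour dose response in 96-well plates underlies each endpoint, interpolated linearly between surrounding concentrations. GI50: concentration for 50% inhibition of growth. Definition used: TGI = concentration required for complete inhibition of growth.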

Key:
Assay in all cases: NCI anticancer screen, dose series, 48 h
[1] = system: BT-549 breast
[2] = system: HCC-2998 colon
[3] = system: OVCAR-3 ovarian
[4] = system: A549 NSCLC
[5] = system: HCT-116 colon
[6] = system: ACHN renal
[7] = system: MDA-MB-435
[8] = system: PC-3 prostate
[9] = system: HL-60(TB) leukemia
[10] = system: RXF 393 renal

Structure (SMILES)	TGI [1]	TGI [2]	TGI [3]	TGI [4]	TGI [5]	TGI [6]	TGI [7]	TGI [8]	TGI [9]	TGI [10]	GI50 [2]	GI50 [3]	GI50 [6]
C=C(C)C(=O)CC[C@@H](C)[C@H]1[C@@H](OC2OC(CO)C(O)C(O)C2O)C[C@@]2(C)[C@@H]3C[C@H](O)C4C(C)(C)[C@@H](OC5OC(CO)C(O)C(O)C5O)CC[C@@]45C[C@@]35CC[C@]12C (stereo partly drawn)	> 100 µM	> 100 µM	> 100 µM	> 100 µM	> 100 µM	> 100 µM	> 100 µM	> 100 µM	> 100 µM	–	–	–	–
Clc1ccc(-c2ccc(-c3nnc(CCc4nnc(-c5ccc(-c6ccc(Cl)cc6)o5)o4)o3)o2)cc1	> 100 µM	> 100 µM	> 100 µM	> 100 µM	> 100 µM	> 100 µM	> 100 µM	> 100 µM	–	> 56 µM	–	–	–
COc1ccc(-c2nc(N)c(C#N)c3c2CCS(=O)(=O)c2ccc(C)cc2-3)cc1OC	> 100 µM	> 100 µM	> 100 µM	> 100 µM	> 100 µM	> 100 µM	91.6 µM	> 100 µM	–	–	–	–	–
[O-]/[N+](=C\c1ccccc1)[C@H](COCc1ccccc1)c1ccccc1	–	> 100 µM	> 100 µM	> 100 µM	> 100 µM	> 100 µM	–	–	62.1 µM	> 100 µM	–	–	–
O=C(Cn1c(=O)oc2ccc(C(=O)c3ccc(F)cc3)cc21)c1ccc([N+](=O)[O-])cc1	–	37.9 µM	–	> 100 µM	> 100 µM	> 100 µM	72.9 µM	85.9 µM	60 µM	> 100 µM	–	–	–
CCC1(O)CC(OC2CC(N(C)C)C(OC3CC4OC5CC(=O)C(C)OC5OC4C(C)O3)C(C)O2)c2c(cc3c(c2O)C(=O)c2c(O)ccc(O)c2C3=O)C1C(=O)OC (stereo not drawn)	–	0.0607 µM and 0.0199 µM and < 0.0465 µM	0.0789 µM and 0.0232 µM and < 0.0174 µM	–	0.0238 µM and 0.126 µM and 0.0875 µM	–	–	0.0576 µM and 0.15 µM	–	–	0.021 µM and 0.01 µM	0.00656 µM and 0.00711 µM	0.000823 µM
COc1cccc2c1OC1c3ccccc3OCC1C2 (stereo not drawn)	> 100 µM	> 100 µM	> 100 µM	> 100 µM	> 100 µM	–	> 100 µM	> 100 µM	–	–	–	–	–
O=C(CSc1nnc(-c2ccc(N=Cc3ccc(Cl)cc3)cc2)o1)Nc1ccccc1Cl	–	–	–	> 100 µM	> 100 µM	> 100 µM	–	–	> 100 µM	> 100 µM	–	–	–
CC1=NN(C(=O)CSc2nnc(SCC(=O)N3N=C(C)CC3(O)c3ccccc3)s2)C(O)(c2ccccc2)C1 (stereo not drawn)	47 µM	> 100 µM	> 100 µM	> 100 µM	> 100 µM	> 100 µM	> 100 µM	> 100 µM	–	75.1 µM	–	–	–
O=C1c2ccccc2C(=O)N1n1c(Cc2ccccc2)n[nH]c1=O	> 100 µM	> 100 µM	> 100 µM	> 100 µM	> 100 µM	> 100 µM	> 100 µM	> 100 µM	–	–	–	–	–
CC1=NN(c2nc(N)nc(-c3ccccc3S(N)(=O)=O)n2)C(C)(C)C1	–	> 100 µM	> 100 µM	–	> 100 µM	82.1 µM	> 100 µM	> 100 µM	41.2 µM	> 100 µM	–	–	–
C/C=C/[C@@]1(OC(=O)c2ccccc2)C[C@@H]2CCCC[C@@H]21	28.2 µM	44.3 µM	–	36.7 µM	29.4 µM	31.5 µM	–	37 µM	30.9 µM	–	–	–	–
CC(=O)NC1C(OCc2ccccc2)OC(CO)C(O)C1OCC(=O)NC(C)C(=O)NC(CCC(=O)NCCCCNc1ccc([N+](=O)[O-])c2[nH]c3ccccc3c(=O)c12)C(N)=O (stereo not drawn)	> 100 µM	> 100 µM	> 100 µM	> 100 µM	> 100 µM	> 100 µM	> 100 µM	> 100 µM	> 100 µM	–	–	–	–
Cc1nc2c(=S)[nH]ncc2[nH]1	> 100 µM	> 100 µM	> 100 µM	> 100 µM	> 100 µM	> 100 µM	> 100 µM	> 100 µM	> 100 µM	–	–	–	–
CC(=O)OCC1OC(Nc2[nH]c(=O)n(C)c(=O)c2-c2csc(N)n2)C(OC(C)=O)C(OC(C)=O)C1OC(C)=O (stereo not drawn)	–	–	> 100 µM	> 100 µM	> 100 µM	> 100 µM	–	–	> 100 µM	–	–	–	–
CCOC(=O)CCCn1nnc(C(=O)OCC)c1C(=O)OCC	> 100 µM	> 100 µM	–	> 100 µM	> 100 µM	> 100 µM	> 100 µM	> 100 µM	–	> 100 µM	–	–	–
CO/C(=N\N=C\c1cc(OC)ccc1OC)c1ccncc1	–	> 10 µM	–	> 10 µM	> 10 µM	> 10 µM	–	> 10 µM	> 10 µM	> 10 µM	–	–	–
O=S(=O)(c1ccc(Br)cc1)n1c2ccc(Br)cc2c2nc3ccccc3nc21	> 100 µM	> 100 µM	> 100 µM	> 100 µM	> 100 µM	> 100 µM	> 100 µM	> 100 µM	–	53 µM	–	–	–
CCC(C)[C@@H](NCc1ccccc1)[C@H](OCc1ccccc1)[C@@H]1COC(C)(C)O1 (stereo partly drawn)	–	–	> 100 µM	78.8 µM	29.2 µM	49.7 µM	> 100 µM	> 100 µM	–	–	–	–	–
COc1cc(/C=C2/SC(c3ccccc3)N(c3ccc(NC(C)=O)cc3)C2=O)cc(OC)c1OC (stereo not drawn)	> 100 µM	> 100 µM	> 100 µM	> 100 µM	> 100 µM	> 100 µM	> 100 µM	–	> 100 µM	> 100 µM	–	–	–
c1ccc(C2=NC3(CCCCC3)N(c3nc4ccccc4s3)N2)nc1	58.2 µM	–	51.2 µM	> 100 µM	> 100 µM	> 100 µM	63.6 µM	46.9 µM	80.3 µM	57.7 µM	–	–	–
Cc1ccc(S(=O)(=O)N/N=C/c2oc(-c3cccc([N+](=O)[O-])c3)c(-c3cccc([N+](=O)[O-])c3)c2[N+](=O)[O-])cc1	–	> 100 µM	> 100 µM	> 100 µM	> 100 µM	> 100 µM	–	–	57.1 µM	90.1 µM	–	–	–
COC(=O)c1c2c(cc3c1CC1(Cc4ccccc4C1=O)C3)CCC2 (stereo not drawn)	–	> 100 µM	> 100 µM	> 100 µM	> 100 µM	> 100 µM	40.3 µM	> 100 µM	53.1 µM	98.4 µM	–	–	–
O=C1C2CCCCC2C(=O)N1n1c(Cc2ccc(Cl)cc2)n[nH]c1=O (stereo not drawn)	> 100 µM	> 100 µM	> 100 µM	> 100 µM	> 100 µM	> 100 µM	> 100 µM	> 100 µM	–	> 100 µM	–	–	–
